Assay results published in PubChem BioAssay AID330 (DTP/NCI, 2004).
Several values for one entry are separate records, joined by “and”; a condition that tells them apart may be missing. Equal values may be shown once. Toxic doses and inconclusive results are not listed. The calls were made as follows: active = survival T/C of 150% or more; inactive = T/C below 125% in these data.

Test system: P388 leukemia ip, CD2F1 mice, survival T/C
Test: NCI In Vivo Anticancer Drug Screen. Data for tumor model P388 Leukemia (intraperitoneal) in CD2F1 (CDF1) mice
Details: endpoint: median survival time, higher = longer survival
How it was run: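 Mice carrying the transplanted tumor received test compound or vehicle. Survival was recorded in each group, and the value is the treated-group measurement divided by that of the vehicle-treated control group.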

[1] = dose: 100.0 mg/kg/injection, schedule: Q04DX002 (ip), vehicle: saline with Tween-80
[2] = dose: 200.0 mg/kg/injection, schedule: Q04DX002 (ip), vehicle: saline with Tween-80
[3] = dose: 400.0 mg/kg/injection, schedule: Q04DX002 (ip), vehicle: saline with Tween-80
[4] = dose: 100.0 mg/kg/injection, schedule: Q01DX001 (ip), vehicle: saline with Tween-80
[5] = dose: 200.0 mg/kg/injection, schedule: Q01DX001 (ip), vehicle: saline with Tween-80
[6] = dose: 400.0 mg/kg/injection, schedule: Q01DX001 (ip), vehicle: saline with Tween-80
[7] = dose: 100.0 mg/kg/injection, schedule: Q01DX001 (ip), vehicle: Klucel (hydroxypropylcellulose) (HPC)
[8] = dose: 200.0 mg/kg/injection, schedule: Q01DX001 (ip), vehicle: Klucel (hydroxypropylcellulose) (HPC)
[9] = dose: 50.0 mg/kg/injection, schedule: Q01DX009 (ip), vehicle: Klucel (hydroxypropylcellulose) (HPC)
[10] = dose: 100.0 mg/kg/injection, schedule: Q01DX009 (ip), vehicle: Klucel (hydroxypropylcellulose) (HPC)
[11] = dose: 200.0 mg/kg/injection, schedule: Q01DX009 (ip), vehicle: Klucel (hydroxypropylcellulose) (HPC)
[12] = dose: 25.0 mg/kg/injection, schedule: Q04DX003 (ip), vehicle: saline with Tween-80
[13] = dose: 50.0 mg/kg/injection, schedule: Q04DX003 (ip), vehicle: saline with Tween-80
[14] = dose: 100.0 mg/kg/injection, schedule: Q04DX003 (ip), vehicle: saline with Tween-80
[15] = dose: 60.0 mg/kg/injection, schedule: Q01DX005 (ip), vehicle: saline with Tween-80
[16] = dose: 120.0 mg/kg/injection, schedule: Q01DX005 (ip), vehicle: saline with Tween-80
[17] = dose: 240.0 mg/kg/injection, schedule: Q01DX005 (ip), vehicle: saline with Tween-80
[18] = dose: 50.0 mg/kg/injection, schedule: Q01DX009 (ip), vehicle: saline
[19] = dose: 25.0 mg/kg/injection, schedule: Q01DX009 (ip), vehicle: saline with Tween-80
[20] = dose: 50.0 mg/kg/injection, schedule: Q01DX009 (ip), vehicle: saline with Tween-80
[21] = dose: 100.0 mg/kg/injection, schedule: Q01DX009 (ip), vehicle: saline with Tween-80

Measured: T/C

CS(C)=O.CS(C)=O.[Cl][Rh]([Cl])([Cl])[Cl]
inactive: dose: 12.5 mg/kg/injection, schedule: Q04DX003 (ip), vehicle: saline 100 % of control | dose: 25.0 mg/kg/injection, schedule: Q04DX003 (ip), vehicle: saline 109 % of control | dose: 50.0 mg/kg/injection, schedule: Q04DX003 (ip), vehicle: saline 118 % of control

CCOC(=O)CC(C)=Nc1c(SC)sc(C#N)c1N
inactive: [1] 97 % of control | [2] 95 % of control | [3] 91 % of control

CC(=O)N(C)OS(=O)(=O)c1ccc(C)cc1
inactive: dose: 50.0 mg/kg/injection, schedule: Q01DX001 (ip), vehicle: saline with Tween-80 102 % of control | [4] 105 % of control | [5] 105 % of control | [6] 95 % of control

CC/C(=C(/CC)c1ccc(OCC(=O)N/N=C2\CCC3C4CCc5cc(O)ccc5C4=CCC23C)cc1)c1ccc(OCC(=O)N/N=C2/CCC3C4CCc5cc(O)ccc5C4=CCC23C)cc1 (stereo unspecified)
inactive: dose: 50.0 mg/kg/injection, schedule: Q01DX001 (ip), vehicle: Klucel (hydroxypropylcellulose) (HPC) 96 % of control | [7] 95 % of control | [8] 87 % of control

CN(C)c1ccc(C=Nc2ccc3ccc4cccc5ccc2c3c45)cc1
inactive: [9] 101 % of control | [10] 102 % of control | [11] 102 % of control

CNC(=O)Oc1cccc(NC(=S)SC)c1
inactive: dose: 12.5 mg/kg/injection, schedule: Q04DX003 (ip), vehicle: saline with Tween-80 106 % of control | [12] 104 % of control | [13] 100 % of control | [14] 104 % of control

O=C(Nc1nn[nH]n1)c1nc(-c2ccccc2)cc(=O)[nH]1
inactive: [15] 101 % of control | [16] 101 % of control | [17] 86 % of control

CN1C(=O)C23CCCN2C(=O)C1(C)SC(=O)S3 (stereo unspecified)
inactive: [18] 98 % of control | dose: 100.0 mg/kg/injection, schedule: Q01DX009 (ip), vehicle: saline 101 % of control | dose: 200.0 mg/kg/injection, schedule: Q01DX009 (ip), vehicle: saline 98 % of control

COc1ccc(C(=O)CCc2c(-c3ccccc3)[nH]c3ccccc23)c(O)c1
inactive: [15] 107 % of control | [16] 100 % of control | [17] 97 % of control

CC(=O)C(=Cc1c(N(C)c2ccccc2)nn2ccccc12)C(C)=O
inactive: [4] 100 % of control | [5] 100 % of control | [6] 100 % of control

O=C(Cc1ccncc1)c1cccnc1
inactive: dose: 12.5 mg/kg/injection, schedule: Q01DX001 (ip), vehicle: saline 101 % of control | dose: 25.0 mg/kg/injection, schedule: Q01DX001 (ip), vehicle: saline 102 % of control | dose: 50.0 mg/kg/injection, schedule: Q01DX001 (ip), vehicle: saline 107 % of control | dose: 100.0 mg/kg/injection, schedule: Q04DX002 (ip), vehicle: saline 98 % of control | dose: 200.0 mg/kg/injection, schedule: Q04DX002 (ip), vehicle: saline 99 % of control | dose: 400.0 mg/kg/injection, schedule: Q04DX002 (ip), vehicle: saline 105 % of control

O=C1Nc2ccccc2/C1=C\c1ccccc1O
inactive: dose: 25.0 mg/kg/injection, schedule: Q01DX009 (ip), vehicle: Klucel (hydroxypropylcellulose) (HPC) 98 % of control | [9] 96 % of control | [10] 95 % of control | [11] 98 % of control | dose: 400.0 mg/kg/injection, schedule: Q01DX009 (ip), vehicle: Klucel (hydroxypropylcellulose) (HPC) 88 % of control

O=[N+]([O-])c1cccc(C2CC(c3ccccc3)=Nc3ccccc3S2)c1 (stereo unspecified)
inactive: [9] 107 % of control | [10] 100 % of control

Cc1ccc(C(C)C)c2c1CN(CCN1COc3c(C(C)C)ccc(C)c3C1)CO2
inactive: dose: 15.0 mg/kg/injection, schedule: Q01DX005 (ip), vehicle: saline with Tween-80 99 % of control | dose: 30.0 mg/kg/injection, schedule: Q01DX005 (ip), vehicle: saline with Tween-80 98 % of control | [15] 91 % of control

O=C1OCCC(O)=C1C=Nc1ccccc1
inactive: dose: 6.25 mg/kg/injection, schedule: Q01DX005 (ip), vehicle: Klucel (hydroxypropylcellulose) (HPC) 108 % of control | dose: 12.5 mg/kg/injection, schedule: Q01DX005 (ip), vehicle: Klucel (hydroxypropylcellulose) (HPC) 112 % of control | dose: 25.0 mg/kg/injection, schedule: Q01DX005 (ip), vehicle: Klucel (hydroxypropylcellulose) (HPC) 117 % of control | [7] 100 % of control | [8] 97 % of control | dose: 400.0 mg/kg/injection, schedule: Q01DX001 (ip), vehicle: Klucel (hydroxypropylcellulose) (HPC) 99 % of control

CCOC(=O)c1csc(CCNC(=O)c2ccccc2)n1
inactive: dose: 12.5 mg/kg/injection, schedule: Q01DX009 (ip), vehicle: other 103 % of control | dose: 25.0 mg/kg/injection, schedule: Q01DX009 (ip), vehicle: other 102 % of control | dose: 50.0 mg/kg/injection, schedule: Q01DX009 (ip), vehicle: other 94 % of control | dose: 100.0 mg/kg/injection, schedule: Q01DX009 (ip), vehicle: other 94 % of control | dose: 200.0 mg/kg/injection, schedule: Q01DX009 (ip), vehicle: other 89 % of control

O=[N+]([O-])c1cccc(SNc2cccc(Cl)c2)c1
inactive: [19] 100 % of control | [12] 90 % of control | [20] 95 % of control | [13] 100 % of control | [21] 104 % of control | [14] 86 % of control | dose: 200.0 mg/kg/injection, schedule: Q04DX003 (ip), vehicle: saline with Tween-80 100 % of control

CC(C)CNCC(=O)Nc1ccc(Cc2ccc(NC(=O)CNCC(C)C)cc2)cc1
inactive: dose: 50.0 mg/kg/injection, schedule: Q01DX005 (ip), vehicle: saline with Tween-80 102 % of control | dose: 100.0 mg/kg/injection, schedule: Q01DX005 (ip), vehicle: saline with Tween-80 97 % of control

O=C1C(Cl)=C(N=Nc2c(Cl)c(O)c3ccccc3c2O)C(=O)c2ccccc21
inactive: dose: 1.56 mg/kg/injection, schedule: Q01DX009 (ip), vehicle: saline 101 % of control and 111 % of control | dose: 3.12 mg/kg/injection, schedule: Q01DX009 (ip), vehicle: saline 103 % of control and 108 % of control | dose: 6.25 mg/kg/injection, schedule: Q01DX009 (ip), vehicle: saline 108 % of control and 109 % of control | dose: 12.5 mg/kg/injection, schedule: Q01DX009 (ip), vehicle: saline 107 % of control and 117 % of control | dose: 25.0 mg/kg/injection, schedule: Q01DX009 (ip), vehicle: saline 102 % of control and 109 % of control | dose: 25.0 mg/kg/injection, schedule: Q01DX010 (ip), vehicle: saline 109 % of control | [18] 90 % of control and 97 % of control | dose: 50.0 mg/kg/injection, schedule: Q01DX010 (ip), vehicle: saline 100 % of control | dose: 100.0 mg/kg/injection, schedule: Q01DX010 (ip), vehicle: saline 109 % of control

Nc1ccc(OCCNC(=O)c2ccc(S(=O)(=O)F)cc2)c(Cl)c1
inactive: [4] 90 % of control | [5] 100 % of control | [6] 104 % of control

O=[N+]([O-])c1cccc2c1CCCC2
inactive: dose: 12.5 mg/kg/injection, schedule: Q01DX009 (ip), vehicle: saline with Tween-80 100 % of control | [19] 109 % of control | [20] 90 % of control

O=c1[nH]c(-c2ccc(O)cc2)cc2ccccc12
inactive: [1] 99 % of control | [2] 100 % of control | [3] 100 % of control

C[N+]1=C(/C=C/Nc2ccc3c4c(cccc24)-c2ccccc2-3)C(C)(C)c2ccccc21
inactive: [20] 108 % of control | [21] 105 % of control | dose: 200.0 mg/kg/injection, schedule: Q01DX009 (ip), vehicle: saline with Tween-80 118 % of control

c1cc(C2=NCCN2)ccc1Nc1ccc(-c2cc3ccc(C4=NCCN4)cc3[nH]2)cc1
active: dose: 3.75 mg/kg/injection, schedule: Q01DX005 (ip), vehicle: Klucel (hydroxypropylcellulose) (HPC) 150 % of control and 165 % of control | dose: 7.5 mg/kg/injection, schedule: Q01DX005 (ip), vehicle: Klucel (hydroxypropylcellulose) (HPC) 154 % of control and 177 % of control
